From patent US4169096A, “Antibiotic compounds” (priority 1977, dated 1979)
In brackets after ≈: the same amount, converted by molar mass. Like-named read-outs stand apart in the source and are kept apart here.

How the values were obtained:
[1] = tested on: Pseudomonas aeruginosa A9843; test: MIC, serial two-fold agar dilution, aerobic bacteria; assay type: cell-based; settings: test medium not given
[2] = pKa' by titration in aqueous ethanol; assay type: physicochemical; settings: 46% aqueous ethanol
C. perfringens A9635 [3] = test: microbe, parasite or virus in culture; assay type: cell-based; settings: Clostridium perfringens, A9635, 18 h
[4] = tested on: Escherichia coli Juhl A15119; test: MIC, serial two-fold agar dilution, aerobic bacteria; assay type: cell-based; settings: JUHLA15119, Nutrient agar (Eiken), read-out: MIC
Proteus morganii A9553 = test: as above; assay type: cell-based; settings: Morganella morganii, Nutrient agar (Eiken)
[5] = tested on: Neisseria gonorrhoeae A15112; test: as above; assay type: cell-based; settings: GC medium (Eiken)
[6] = tested on: Neisseria meningitidis A21496; test: as above; assay type: cell-based; settings: GC medium (Eiken)
B. fragilis A20928-1 [7] = test: Inoculum size effect on MIC, GAM broth; assay type: cell-based; settings: Bacteroides fragilis
S. pyogenes A20201 [8] = test: Systemic infection with S. pyogenes in mice; assay type: in vivo; settings: Streptococcus pyogenes, A20201, 120 h, just before challenge, determined after 5 days, read-out: PD50
[9] = tested on: Streptococcus pyogenes A9604; test: MIC, serial two-fold agar dilution, aerobic bacteria; assay type: cell-based; settings: GC medium (Eiken)
[10] = tested on: Neisseria gonorrhoeae A20154; test: as above; assay type: cell-based; settings: GC medium (Eiken)
[11] = tested on: Staphylococcus aureus 209P; test: as above; assay type: cell-based; settings: Nutrient agar (Eiken)
[12] = tested on: Klebsiella pneumoniae A9678; test: as above; assay type: cell-based; settings: Nutrient agar (Eiken), read-out: MIC
[13] = tested on: Bacillus cereus ATCC 10702 A; test: as above; assay type: cell-based; settings: ATCC10702, Nutrient agar (Eiken), read-out: MIC
Stability in solution = assay type: physicochemical
Solubility = assay type: physicochemical
[14] = tested on: Serratia marcescens A20019; test: MIC, serial two-fold agar dilution, aerobic bacteria; assay type: cell-based; settings: Nutrient agar (Eiken), read-out: MIC
[15] = tested on: Hemophilus influenzae A20188; test: as above; assay type: cell-based; settings: Haemophilus influenzae, GC medium (Eiken)
B. fragilis A20928-1 [16] = test: Bactericidal activity (MIC & MBC); assay type: cell-based; settings: Bacteroides fragilis, A209281, inoculum size 2.8 × 10^6 cell/ml
aerobic organisms = test: Antibacterial activity against aerobic bacteria (in words); assay type: cell-based; settings: Bacillus species, streptococci, Neisseria meningtidis, N. gonorrhoeae, Hemophilus influenzae
[17] = tested on: Staphylococcus aereus Smith; test: MIC, serial two-fold agar dilution, aerobic bacteria; assay type: cell-based
[18] = tested on: Peptostreptococcus anaerobius B43; assay type: cell-based; settings: GAM agar medium (Nissui)
[19] = tested on: Streptococcus viridans A21354; test: MIC, serial two-fold agar dilution, aerobic bacteria; assay type: cell-based; settings: GC medium (Eiken)
Sarcina lutea PCI-1001 = test: as above; assay type: cell-based; settings: Micrococcus luteus, PCI1001
in vivo = settings: sc, LD50, sc
[20] = tested on: two anaerobic and one aerobic organisms; test: Bactericidal potential (in words); assay type: cell-based
[21] = tested on: Neisseria meningitidis A20049; test: MIC, serial two-fold agar dilution, aerobic bacteria; assay type: cell-based; settings: GC medium (Eiken), read-out: MIC
Proteus mirabilis A9554 = test: as above; assay type: cell-based; settings: Nutrient agar (Eiken)
B. fragilis A20928-1 [22] = test: Inoculum size effect on MIC, GAM agar; assay type: cell-based; settings: Bacteroides fragilis, A209281; inoculum size 1.2 × 10^6 cell/ml
Micrococcus flavus = test: MIC, serial two-fold agar dilution, aerobic bacteria; assay type: cell-based; settings: Nutrient agar (Eiken), read-out: MIC
[23] = tested on: two anaerobic organisms (B. fragilis and C. perfringens); assay type: cell-based; settings: broth dilution method
[24] = tested on: Streptococcus pyogenes A20201; test: MIC, serial two-fold agar dilution, aerobic bacteria; assay type: cell-based; settings: GC medium (Eiken)
[25] = tested on: Staphylococcus aureus #52-34; test: as above; assay type: cell-based
[26] = tested on: Diplococcus pneumoniae A9585; test: as above; assay type: cell-based; settings: Streptococcus pneumoniae, GC medium (Eiken)
[27] = tested on: aerobic and anaerobic bacteria; test: Antibacterial activity and spectrum (in words); assay type: cell-based
[28] = tested on: Escherichia coli K-12 A9632; test: MIC, serial two-fold agar dilution, aerobic bacteria; settings: K12A9632
[29] = tested on: C. perfringens or S. pyrogenes; assay type: in vivo, mice; settings: subcutaneous and oral
C. perfringens A9635 [30] = test: animal or person; assay type: in vivo, mice; settings: Clostridium perfringens, A9635, in Mus musculus, 120 h, read-out: PD50
[31] = tested on: Bacillus subtilis PCI-219; test: MIC, serial two-fold agar dilution, aerobic bacteria; assay type: cell-based; settings: PCI219, Nutrient agar (Eiken), read-out: MIC
[32] = tested on: Hemophilus influenzae A9832; test: as above; assay type: cell-based; settings: Haemophilus influenzae, GC medium (Eiken)
S. pyogenes A20201 [33] = test: Bactericidal activity (MIC & MBC); assay type: cell-based; settings: Streptococcus pyogenes, A20201, 18 h
C. perfringens A9635 [34] = test: microbe, parasite or virus in culture; assay type: cell-based; settings: Clostridium perfringens, A9635, read-out: MIC in GAM broth, inoculum size […] 10^6 cell/ml

Question: Which results are given for `COC(=O)C1C(C)OC2(C)CC(=O)C3OC12OC(C(C)/C=C(C)/C=C/C(=O)C1=C(O)CNC1=O)C3C` (stereo not shown) [Bu-2313B]?
Answer: MIC [1]: > 100 µg/mL; pKa [2]: 4.9; MBC (C. perfringens A9635 [3]): 12.5 µg/mL (≈ 24.8 µM); MIC [4]: > 100 µg/mL; MIC (Proteus morganii A9553): > 100 µg/mL; MIC [5]: 0.8 µg/mL (≈ 1.59 µM); MIC [6]: 1.6 µg/mL (≈ 3.18 µM); MIC (B. fragilis A20928-1 [7]; A209281, inoculum size […] 10^7 cell/ml, read-out: MIC in GAM broth): 0.4 µg/mL (≈ 0.794 µM); MIC (B. fragilis A20928-1 [7]; A209281, read-out: MIC in GAM broth, inoculum size […] 10^6 cell/ml): 0.013 µg/mL (≈ 0.0258 µM); ED50 (S. pyogenes A20201 [8]; po, NA: no activity): 25 mg/kg; ED50 (S. pyogenes A20201 [8]; sc): 9 mg/kg; MIC [9]: 0.4 µg/mL (≈ 0.794 µM); MIC [10]: 0.8 µg/mL (≈ 1.59 µM); MIC [11]: 25 µg/mL (≈ 49.6 µM); MIC [12]: > 100 µg/mL; MIC [13]: 0.8 µg/mL (≈ 1.59 µM); stability (Stability in solution; acidic solution): stable; stability (Stability in solution; alkaline solution, N/10 NaOH, room temperature, overnight): inactivated; solubility (Solubility; hexane and alkaline water): slightly soluble; solubility (Solubility; most organic solvents such as lower alcohols, ethyl acetate, chloroform and benzene): readily soluble; solubility (Solubility; water): practically insoluble; MIC [14]: > 100 µg/mL; MIC [15]: 0.8 µg/mL (≈ 1.59 µM); MIC (B. fragilis A20928-1 [16]; broth): 0.006 µg/mL (≈ 0.0119 µM); MBC (B. fragilis A20928-1 [16]; growth of less than 100 colonies per plate, 18 hours at 37° C.): > 0.8 µg/mL; susceptibility of aerobic strains (aerobic organisms): susceptible; MIC [17]: 12.5 µg/mL (≈ 24.8 µM); MIC [18]: 0.4 µg/mL (≈ 0.794 µM); MIC [19]: 0.4 µg/mL (≈ 0.794 µM); MIC (Sarcina lutea PCI-1001): 12.5 µg/mL (≈ 24.8 µM); LD50 (in vivo): 225 mg/kg; antibacterial action [20]: bacteriostatic rather than bactericidal; MIC [21]: 0.8 µg/mL (≈ 1.59 µM); MIC (Proteus mirabilis A9554): > 100 µg/mL; MIC (B. fragilis A20928-1 [22]): 0.05 µg/mL (≈ 0.0993 µM); MIC (Micrococcus flavus): 25 µg/mL (≈ 49.6 µM); influence of inoculum size on MIC [23]: greatly affected by inoculum size; LD50 (Acute toxicity; ip, listed as Bu-2313B (free acid)): 115 mg/kg; comparative acute toxicity (Acute toxicity; sc, ip and oral LD50): significantly lower toxicity than Bu-2313A; MIC [24]: 0.4 µg/mL (≈ 0.794 µM); MIC [25]: 12.5 µg/mL (≈ 24.8 µM); MIC [26]: 0.4 µg/mL (≈ 0.794 µM); antibacterial activity [27]: exhibit antibacterial activity against a variety of anaerobic bacteria and some aerobic bacteria; comparative activity and antibacterial spectrum ([27]; in vitro): very similar to those of tirandamycin; MIC [28]: > 100 µg/mL; protection against systemic infections [29]: fairly good protection; ED50 (C. perfringens A9635 [30]; po): 30 mg/kg; ED50 (C. perfringens A9635 [30]; sc): 6.25 mg/kg; MIC [31]: 1.6 µg/mL (≈ 3.18 µM); MIC [32]: 0.4 µg/mL (≈ 0.794 µM); MBC (S. pyogenes A20201 [33]): 12.5 µg/mL (≈ 24.8 µM); MIC (C. perfringens A9635 [34]): 25 µg/mL (≈ 49.6 µM)
